Experimental data from ChEMBL document CHEMBL2380303, “Synthesis, cytotoxicity and topoisomerase II inhibitory activity of lomefloxacin derivatives” (Bioorg Med Chem Lett, 2013).
Calls of active or inactive are those of the source. No cut-off for these calls is given here.

What was measured:
[1] = target: DNA topoisomerase 2-alpha (Homo sapiens) (UniProt P11388); test: Inhibition of human topoisomerase 2-mediated relaxation of supercoiled plasmid DNA assessed as formation of linear DNA at 100 uM by agarose gel electrophoresis
Chain of DNA topoisomerase 2-alpha (Homo sapiens) (P11388 whole entry): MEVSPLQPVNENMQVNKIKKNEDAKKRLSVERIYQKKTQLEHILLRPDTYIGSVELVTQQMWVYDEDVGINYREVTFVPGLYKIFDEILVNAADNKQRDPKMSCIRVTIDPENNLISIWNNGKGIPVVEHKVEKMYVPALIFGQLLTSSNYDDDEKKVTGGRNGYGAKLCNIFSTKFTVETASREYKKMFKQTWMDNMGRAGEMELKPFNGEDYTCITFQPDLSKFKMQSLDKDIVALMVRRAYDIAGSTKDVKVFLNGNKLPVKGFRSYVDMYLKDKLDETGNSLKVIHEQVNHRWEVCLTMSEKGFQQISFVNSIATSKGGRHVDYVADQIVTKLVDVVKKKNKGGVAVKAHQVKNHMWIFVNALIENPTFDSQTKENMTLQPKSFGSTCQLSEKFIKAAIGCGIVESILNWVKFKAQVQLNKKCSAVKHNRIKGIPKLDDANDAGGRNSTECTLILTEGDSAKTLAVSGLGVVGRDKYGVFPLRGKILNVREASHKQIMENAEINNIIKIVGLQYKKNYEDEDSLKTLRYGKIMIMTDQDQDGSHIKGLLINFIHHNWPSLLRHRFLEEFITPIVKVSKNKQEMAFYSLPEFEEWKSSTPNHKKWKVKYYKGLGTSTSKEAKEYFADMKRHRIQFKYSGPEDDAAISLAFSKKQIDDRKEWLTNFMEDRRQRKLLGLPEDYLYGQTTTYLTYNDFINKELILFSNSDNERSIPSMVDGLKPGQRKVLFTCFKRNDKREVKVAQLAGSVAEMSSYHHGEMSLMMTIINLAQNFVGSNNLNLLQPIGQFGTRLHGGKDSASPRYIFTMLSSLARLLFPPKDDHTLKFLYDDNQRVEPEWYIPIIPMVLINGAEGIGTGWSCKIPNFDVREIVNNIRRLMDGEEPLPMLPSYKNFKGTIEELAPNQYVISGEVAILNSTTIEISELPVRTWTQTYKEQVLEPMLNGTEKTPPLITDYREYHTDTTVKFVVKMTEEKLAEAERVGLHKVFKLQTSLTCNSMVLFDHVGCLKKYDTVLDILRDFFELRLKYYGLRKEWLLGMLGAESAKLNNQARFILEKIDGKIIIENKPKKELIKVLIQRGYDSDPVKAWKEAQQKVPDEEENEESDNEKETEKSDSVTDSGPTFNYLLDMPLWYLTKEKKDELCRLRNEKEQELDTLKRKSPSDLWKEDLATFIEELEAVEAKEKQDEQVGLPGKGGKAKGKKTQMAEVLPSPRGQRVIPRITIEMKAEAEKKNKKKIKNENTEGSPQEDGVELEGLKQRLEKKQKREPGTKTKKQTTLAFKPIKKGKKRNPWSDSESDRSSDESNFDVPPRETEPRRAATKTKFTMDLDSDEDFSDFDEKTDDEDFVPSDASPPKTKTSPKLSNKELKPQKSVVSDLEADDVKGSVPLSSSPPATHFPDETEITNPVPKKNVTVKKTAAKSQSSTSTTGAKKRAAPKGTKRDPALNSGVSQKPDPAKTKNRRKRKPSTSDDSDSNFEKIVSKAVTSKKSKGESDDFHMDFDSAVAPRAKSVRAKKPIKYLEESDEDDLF

[2] = target: T1, DNA topoisomerase 1 (Homo sapiens) (UniProt P11387); test: Inhibition of human topoisomerase 1-mediated relaxation of supercoiled plasmid DNA assessed as formation of linear DNA at 100 uM by agarose gel electrophoresis
T1 sequence (whole entry): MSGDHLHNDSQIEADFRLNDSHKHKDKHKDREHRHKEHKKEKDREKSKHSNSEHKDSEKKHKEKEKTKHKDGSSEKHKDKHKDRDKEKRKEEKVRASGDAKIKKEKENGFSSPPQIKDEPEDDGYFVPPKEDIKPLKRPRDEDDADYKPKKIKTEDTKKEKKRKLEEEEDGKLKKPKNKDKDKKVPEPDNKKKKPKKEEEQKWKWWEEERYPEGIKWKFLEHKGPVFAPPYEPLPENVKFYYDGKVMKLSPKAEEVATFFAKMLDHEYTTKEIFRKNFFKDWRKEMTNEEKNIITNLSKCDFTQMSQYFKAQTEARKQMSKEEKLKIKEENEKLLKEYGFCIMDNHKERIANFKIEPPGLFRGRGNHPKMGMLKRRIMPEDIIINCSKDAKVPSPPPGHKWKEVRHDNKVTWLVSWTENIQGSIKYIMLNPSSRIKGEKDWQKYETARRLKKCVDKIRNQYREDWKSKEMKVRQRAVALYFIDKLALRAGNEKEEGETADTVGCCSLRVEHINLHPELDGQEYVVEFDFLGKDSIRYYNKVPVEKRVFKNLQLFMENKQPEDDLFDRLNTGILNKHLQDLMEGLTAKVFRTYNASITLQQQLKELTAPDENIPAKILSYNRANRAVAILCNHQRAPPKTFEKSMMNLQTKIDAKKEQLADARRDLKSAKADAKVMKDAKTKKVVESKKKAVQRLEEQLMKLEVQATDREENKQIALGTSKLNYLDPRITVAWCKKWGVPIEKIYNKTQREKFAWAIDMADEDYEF

[3] = system: KB; test: Cytotoxicity against human KB cells by MTT assay; format: functional, cell-based
[4] = system: Bel-7402; test: Cytotoxicity against human Bel7402 cells by MTT assay; format: functional, cell-based
[5] = system: HCT-116; test: Cytotoxicity against human HCT116 cells by MTT assay; format: functional, cell-based
[6] = system: MDA-MB-231; test: Cytotoxicity against human MDA-MB-231 cells by MTT assay; format: functional, cell-based
[7] = system: A549; test: Cytotoxicity against human A549 cells by MTT assay; format: functional, cell-based

| Compound | inhibition [1] | inhibition [2] | IC50 [3] | IC50 [4] | IC50 [5] | IC50 [6] | IC50 [7] |
| --- | --- | --- | --- | --- | --- | --- | --- |
| CCn1cc(C(=O)Nc2ccc(OC(F)(F)F)cc2)c(=O)c2cc(F)c(N3CCNC(C)C3)c(F)c21 (stereo not drawn) | Active | inactive | 1.4 µM | 2 µM | 2.35 µM | 0.98 µM | 1.32 µM |
| CCn1cc(C(=O)Nc2ccccc2N)c(=O)c2cc(F)c(N3CCNC(C)C3)c(F)c21 (stereo not drawn) | – | inactive | 2.8 µM | 4.8 µM | 2.7 µM | 9.5 µM | 5.9 µM |
| CCn1cc(C(=O)Nc2ccc(Cl)cn2)c(=O)c2cc(F)c(N3CCNC(C)C3)c(F)c21 (stereo not drawn) | Active | inactive | 1.6 µM | 4.9 µM | 3.3 µM | 4.8 µM | 3.3 µM |
| CC[C@@]1(O)C(=O)OCc2c1cc1n(c2=O)Cc2cc3cc(O)ccc3nc2-1 [HYDROXYCAMPTOTHECIN] | – | – | – | – | 0.3 µM | 0.06 µM | 0.07 µM |
| CCn1cc(C(=O)Nc2ccc(C)c([N+](=O)[O-])c2)c(=O)c2cc(F)c(N3CCNC(C)C3)c(F)c21 (stereo not drawn) | Active | inactive | 3.9 µM | 29.1 µM | 11.8 µM | 4.2 µM | 3.7 µM |
| CCn1cc(C(=O)Nc2nccs2)c(=O)c2cc(F)c(N3CCNC(C)C3)c(F)c21 (stereo not drawn) | – | inactive | 43.5 µM | > 50 µM | 8.66 µM | > 50 µM | 20.2 µM |
| CCn1cc(C(=O)Nc2cccc([N+](=O)[O-])c2)c(=O)c2cc(F)c(N3CCNC(C)C3)c(F)c21 (stereo not drawn) | Active | inactive | 1.7 µM | 1 µM | 2.71 µM | 3.25 µM | 3.24 µM |
| CCn1cc(C(=O)Nc2ccc(C(C)=O)cc2)c(=O)c2cc(F)c(N3CCNC(C)C3)c(F)c21 (stereo not drawn) | Active | inactive | 42.6 µM | > 50 µM | 4.6 µM | 5.6 µM | 4 µM |
| CCn1cc(C(=O)Nc2ccccc2)c(=O)c2cc(F)c(N3CCNC(C)C3)c(F)c21 (stereo not drawn) | – | inactive | 4.4 µM | 6 µM | 12.7 µM | 7.4 µM | 39.3 µM |

The next lines start with results.

| inhibition [1] | inhibition [2] | Compound | IC50 [3] | IC50 [4] | IC50 [5] | IC50 [6] | IC50 [7] |
| --- | --- | --- | --- | --- | --- | --- | --- |
| – | inactive | CCn1cc(C(=O)NCc2ccc(OC)cc2)c(=O)c2cc(F)c(N3CCNC(C)C3)c(F)c21 (stereo not drawn) | 1.63 µM | 10.3 µM | 1.4 µM | 25.3 µM | 7 µM |
| – | inactive | CCn1cc(-c2nc3ccc([N+](=O)[O-])cc3o2)c(=O)c2cc(F)c(N3CCNC(C)C3)c(F)c21 (stereo not drawn) | 0.9 µM | 1.6 µM | 1.1 µM | 2 µM | 0.9 µM |
| – | inactive | CCn1cc(C(=O)Nc2ccc(OC)cc2)c(=O)c2cc(F)c(N3CCNC(C)C3)c(F)c21 (stereo not drawn) | 2.6 µM | 5.4 µM | 3.8 µM | 7.3 µM | 9.7 µM |
| Active | – | COc1cc([C@@H]2c3cc4c(cc3[C@@H](O[C@@H]3O[C@@H]5CO[C@@H](C)O[C@H]5[C@H](O)[C@H]3O)[C@H]3COC(=O)[C@H]23)OCO4)cc(OC)c1O | – | – | – | – | – |
| Active | inactive | CCn1cc(C(=O)Nc2cc([N+](=O)[O-])ccc2F)c(=O)c2cc(F)c(N3CCNC(C)C3)c(F)c21 (stereo not drawn) | 3.2 µM | 2.9 µM | 2.6 µM | 6.9 µM | 1.7 µM |
| – | inactive | CCn1cc(C(=O)Nc2ccccc2O)c(=O)c2cc(F)c(N3CCNC(C)C3)c(F)c21 (stereo not drawn) | 5.05 µM | > 50 µM | 5.37 µM | 7.43 µM | 24.8 µM |
